The target of data set [1] is apotransferrin and monoferric transferrin (Homo sapiens, UniProt P02787).
On data set [2], the source says: The angle of repose is related to resistance to movement between particles (interparticulate friction) and is the constant, three-dimensional angle relative to the horizontal base assumed by a cone-shaped pile of powder. In a typical assay, a symmetrical cone-shaped pile of powder is built by passing a solid particulate formulation through a funnel onto a vibration-free fixed base. The height of the funnel is maintained approximately 2 cm to 4 cm above the pile to minimize the effect of falling particles on the top of the pile. The angle of repose can then be determined by measuring the height and radius of the cone and calculating the angle of repose from the following equation: angle of repose=tan^−1(height/radius).

The conditions of data set [3]: healthy volunteers, 2.5-10 mg iv over 4 hours, 15 and 20 mg iv over 12 hours.
This is another data set of the same source.
The conditions of data set [4]: aqueous solution.
The mark [5] stands for this setting: Cilas 1180LD laser diffraction, liquid dispersion in mineral oil, replicates 1-3, citrate.

“And” between values parts separate entries of the source, which are not always exact repeats. Identical values can stand only once.

Sequence of apotransferrin and monoferric transferrin (P02787 20-698): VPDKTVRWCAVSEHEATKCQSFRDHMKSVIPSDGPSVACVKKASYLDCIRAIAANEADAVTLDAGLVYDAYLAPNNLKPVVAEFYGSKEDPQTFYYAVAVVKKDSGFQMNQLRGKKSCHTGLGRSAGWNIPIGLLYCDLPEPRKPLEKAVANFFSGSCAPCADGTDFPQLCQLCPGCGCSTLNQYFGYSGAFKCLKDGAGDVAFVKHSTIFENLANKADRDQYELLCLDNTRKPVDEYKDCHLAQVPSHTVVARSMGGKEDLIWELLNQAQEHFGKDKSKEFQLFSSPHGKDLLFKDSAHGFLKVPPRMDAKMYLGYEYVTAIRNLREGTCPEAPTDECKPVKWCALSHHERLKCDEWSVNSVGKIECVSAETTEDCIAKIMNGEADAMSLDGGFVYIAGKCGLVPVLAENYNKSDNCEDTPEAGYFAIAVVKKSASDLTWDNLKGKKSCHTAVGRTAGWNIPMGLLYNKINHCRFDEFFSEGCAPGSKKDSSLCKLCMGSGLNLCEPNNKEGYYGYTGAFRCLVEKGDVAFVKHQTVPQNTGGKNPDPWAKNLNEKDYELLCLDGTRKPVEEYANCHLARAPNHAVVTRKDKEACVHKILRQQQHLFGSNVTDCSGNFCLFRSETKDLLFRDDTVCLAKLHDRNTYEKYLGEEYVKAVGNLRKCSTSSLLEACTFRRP

For the molecule `O=C([O-])CC(O)(CC(=O)[O-])C(=O)[O-].O=P(O)(O)OP(=O)(O)O.[Fe+3]` [SFP, Ferric pyrophosphate citrate], the Pharmacologic action entry in data set [1] was “Binds directly to apotransferrin and”. Also, the “Angle of Response, Average” value in data set [2] (average of 3 replicate measurements) is 41.5 °. In data set [2] (single replicate measurements 1-3, citrate), the “Angle of Response” value was 42.3 ° and 41.4 ° and 40.9 °. In data set [3], the “AUC of baseline-corrected serum iron” value is “increased in a dose proportional manner” and the “Cmax of baseline-corrected serum iron” value is “increased in a dose proportional manner”. Moreover, under setting [5], the D10 was 3.57 μm and 3.63 μm and 3.68 μm; the D50 was 12.73 μm and 12.66 μm and 12.58 μm; the D90 is 41.08 μm and 40.18 μm and 39.23 μm. Where the note is “light microscopy, dry powder and mineral oil dispersions”, this molecule registered a primary particle size greater than 5 μm. Further, the “Fe(III)-ligand binding” value in data set [4] is “Covalent and stable in aqueous”.

The record behind these values is patent US11517555B2, “Solid soluble ferric pyrophosphate formulations, kits, and methods using the same” (ROCKWELL MEDICAL, INC., priority 2015, dated 2022).
